Here are results for 18 molecules from patent publication US7371746B2, “1,2,4-Thiadiazole compounds and pests controlling composition containing the same” (Sumitomo Chemical Company Limited, priority 2003, dated 2008).

The test system of this experiment is Aphis gossypii (cotton aphid). Kind of experiment: Test Example 1: spray test on cucumber plants infested with cotton aphid. Particulars: 144 h, 500 ppm active ingredient, spray liquid 20 ml/cup on cucumber plant, sixth day after the application. The format is in vivo. How it is done: The formulation of each of the present compounds (3), (4), (5), (6), (7), (8), (9), (10), (11), (14), (15a), (15b), (16a), (17a), (17b), (18a), (18b), (19), (20), (21) and (22) according to Formulation Example 5 was diluted with water so that the active ingredient concentration came to 500 ppm to prepare a spray liquid. The seeds of cucumber were planted in a polyethylene cup and it was grown until the first true leaf was developed. On the plant about twenty Aphis gossypii (cotton aphid) are allowed to be parasitic. On the next day, the above spray liquid was applied at a ratio of 20 ml/cup to the cucumber plant. On the sixth day after the application, the number of Aphis gossypii was examined, and the control value was determined by the following formula: Control value (%)={1−(Cb×Tai)/(Cai×Tb)}×100 wherein the variables in the formula have the following meanings: Cb: the number of insects before the treatment in the non-treated area; Cai: the number of insects at the time of observation in the non-treated area; Tb: the number of insects before the treatment in the treated area; and Tai: the number of insects at the time of observation in the treated area.
Take `CC#CCOc1nsc(N2CCCCC2C)n1` (stereo not drawn) [present compound (5), 3-(2-butynyloxy)-5-(2-methylpiperidino)-1,2,4-thiadiazole]: the pest or weed control (commonly how far the test organism was held down) at 500 ppm was not below 90%.
`CC#CCOc1nsc(N2CC(C)CC(C)C2)n1` (stereo not drawn) [present compound (15a), 3-(2-butynyloxy)-5-(3,5-dimethylpiperidino)-1,2,4-thiadiazole] showed a pest or weed control at 500 ppm not below 90%.
Turning to `CC#CCOc1nsc(N2CCOCC2)n1` [present compound (9), 3-(2-butynyloxy)-5-morpholino-1,2,4-thiadiazole], the pest or weed control at 500 ppm was not below 90%.
In turn, `CC#CCOc1nsc(N2CCCCC2)n1` [present compound (3), 3-(2-butynyloxy)-5-piperidino-1,2,4-thiadiazole] had a pest or weed control at 500 ppm not below 90%.
Next, `CCC#CCOc1nsc(N2CC(C)CC(C)C2)n1` (stereo not drawn) [present compound (16a), 3-(2-pentynyloxy)-5-(3,5-dimethylpiperidino)-1,2,4-thiadiazole]: not below 90%.
In turn, `CCC#CCOc1nsc(N2CC(C)OC(C)C2)n1` (stereo not drawn) [present compound (18a), 3-(2-pentynyloxy)-5-(2,6-dimethylmorpholino)-1,2,4-thiadiazole] registered a pest or weed control at 500 ppm not below 90%.
For `CC#CCOc1nsc(N2CCCC(C(F)(F)F)C2)n1` (stereo not drawn) [present compound (22), 3-(2-butynyloxy)-5-(3-trifluoromethylpiperidino)-1,2,4-thiadiazole] the value was not below 90%.
Next, `CCC#CCOc1nsc(N2CCOCC2)n1` [present compound (10), 3-(2-pentynyloxy)-5-morpholino-1,2,4-thiadiazole]: not below 90%; `CC#CC(C)Oc1nsc(N2CC(C)CC(C)C2)n1` (stereo not drawn) [present compound (21), 3-(1-methyl-2-butynyloxy)-5-(3,5-dimethylpiperidino)-1,2,4-thiadiazole]: not below 90%.
Next, `C#CCOc1nsc(N2CC(C)CC(C)C2)n1` (stereo not drawn) [present compound (20), 3-(2-propynyloxy)-5-(3,5-dimethylpiperidino)-1,2,4-thiadiazole]: not below 90%.
In turn, `CC#CCOc1nsc(N2CC(C)OC(C)C2)n1` (stereo not drawn) [present compound (17a), 3-(2-butynyloxy)-5-(2,6-dimethylmorpholino)-1,2,4-thiadiazole] returned a pest or weed control at 500 ppm not below 90%.
Next, `CCC#CCOc1nsc(N2CCCCC2)n1` [present compound (4), 3-(2-pentynyloxy)-5-piperidino-1,2,4-thiadiazole]: not below 90%; `CC#CCOc1nsc(N2CCC(C)CC2)n1` [present compound (11), 3-(2-butynyloxy)-5-(4-methylpiperidino)-1,2,4-thiadiazole]: not below 90%; `CC#CCOc1nsc(N2CC(CC)CC(CC)C2)n1` (stereo not drawn) [present compound (19), 3-(2-butynyloxy)-5-(3,5-diethylpiperidino)-1,2,4-thiadiazole]: not below 90%.
As to `CC#CCOc1nsc(N2CCCC(C)C2)n1` (stereo not drawn) [present compound (7), 3-(2-butynyloxy)-5-(3-methylpiperidino)-1,2,4-thiadiazole], the pest or weed control at 500 ppm was not below 90%.
For `CCC#CCOc1nsc(N2CCCC(C)C2)n1` (stereo not drawn) [present compound (8), 3-(2-pentynyloxy)-5-(3-methylpiperidino)-1,2,4-thiadiazole] the value was not below 90%.
`CCC#CCOc1nsc(N2CCCCCC2)n1` [present compound (14), 3-(2-pentynyloxy)-5-hexamethyleneimino-1,2,4-thiadiazole]: the pest or weed control at 500 ppm is not below 90%.
Next, `CCC#CCOc1nsc(N2CCCCC2C)n1` (stereo not drawn) [present compound (6), 3-(2-pentynyloxy)-5-(2-methylpiperidino)-1,2,4-thiadiazole]: not below 90%.
